Several values for one entry are separate records, joined by “and”; a condition that tells them apart may be missing. Equal values may be shown once. Inconclusive results and toxic doses are left out. Cut-off read from the data, not from the text of the source: active = T/C of 150% or more; inactive = T/C below 125%.
System: L1210 leukemia ip in BDF1 mice, survival T/C
Experiment: NCI In Vivo Anticancer Drug Screen. Data for tumor model L1210 Leukemia (intraperitoneal) in B6D2F1 (BDF1) mice
Settings: endpoint: mean survival time, higher = longer survival
Procedure, shortened: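 Tumor was transplanted into mice, which were then dosed with test compound or vehicle alone. Survival was recorded for each group, and the treated figure was expressed relative to the control figure.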

[1] = dose: 50.0 mg/kg/injection, schedule: Q01DX009 (ip), vehicle: saline sonified
[2] = dose: 100.0 mg/kg/injection, schedule: Q01DX009 (ip), vehicle: saline sonified
[3] = dose: 100.0 mg/kg/injection, schedule: Q04DX003 (ip), vehicle: Klucel (hydroxypropylcellulose) (HPC)
[4] = dose: 200.0 mg/kg/injection, schedule: Q01DX009 (ip), vehicle: saline sonified
[5] = dose: 200.0 mg/kg/injection, schedule: Q04DX003 (ip), vehicle: Klucel (hydroxypropylcellulose) (HPC)
[6] = dose: 100.0 mg/kg/injection, schedule: Q04DX002 (ip), vehicle: Klucel (hydroxypropylcellulose) (HPC)
[7] = dose: 200.0 mg/kg/injection, schedule: Q04DX002 (ip), vehicle: Klucel (hydroxypropylcellulose) (HPC)
[8] = dose: 400.0 mg/kg/injection, schedule: Q04DX002 (ip), vehicle: Klucel (hydroxypropylcellulose) (HPC)
[9] = dose: 100.0 mg/kg/injection, schedule: Q04DX003 (ip), vehicle: saline
[10] = dose: 12.5 mg/kg/injection, schedule: Q04DX003 (ip), vehicle: saline
[11] = dose: 25.0 mg/kg/injection, schedule: Q04DX003 (ip), vehicle: saline
[12] = dose: 50.0 mg/kg/injection, schedule: Q01DX009 (ip), vehicle: saline with Tween-80
[13] = dose: 100.0 mg/kg/injection, schedule: Q01DX009 (ip), vehicle: saline with Tween-80
[14] = dose: 100.0 mg/kg/injection, schedule: Q04DX003 (ip), vehicle: saline with Tween-80
[15] = dose: 200.0 mg/kg/injection, schedule: Q01DX009 (ip), vehicle: saline with Tween-80
[16] = dose: 200.0 mg/kg/injection, schedule: Q04DX003 (ip), vehicle: saline with Tween-80
[17] = dose: 400.0 mg/kg/injection, schedule: Q04DX003 (ip), vehicle: Klucel (hydroxypropylcellulose) (HPC)
[18] = dose: 25.0 mg/kg/injection, schedule: Q01DX009 (ip), vehicle: saline
[19] = dose: 50.0 mg/kg/injection, schedule: Q01DX009 (ip), vehicle: saline
[20] = dose: 100.0 mg/kg/injection, schedule: Q01DX009 (ip), vehicle: saline

Measured: T/C

COc1cc2c(cc1I)-c1c(cc(OC)c(OC)c1OC)CC[C@@H]2NC(C)=O
inactive: dose: 17.0 mg/kg/injection, schedule: Q01DX Z (ip), vehicle: carboxymethylcellulose (CMC) 102 % of control | dose: 26.0 mg/kg/injection, schedule: Q01DX Z (ip), vehicle: carboxymethylcellulose (CMC) 108 % of control | dose: 40.0 mg/kg/injection, schedule: Q01DX Z (ip), vehicle: carboxymethylcellulose (CMC) 119 % of control | dose: 49.0 mg/kg/injection, schedule: Q01DX Z (ip), vehicle: carboxymethylcellulose (CMC) 103 % of control | [1] 108 % of control | dose: 60.0 mg/kg/injection, schedule: Q01DX Z (ip), vehicle: carboxymethylcellulose (CMC) 117 % of control | dose: 73.0 mg/kg/injection, schedule: Q01DX Z (ip), vehicle: carboxymethylcellulose (CMC) 103 % of control | dose: 90.0 mg/kg/injection, schedule: Q01DX Z (ip), vehicle: carboxymethylcellulose (CMC) 102 % of control | [2] 106 % of control | [3] 99 % of control | dose: 110.0 mg/kg/injection, schedule: Q01DX Z (ip), vehicle: carboxymethylcellulose (CMC) 103 % of control | [4] 119 % of control | [5] 99 % of control

CC(=O)Oc1c2ccccc2cc2c1ccc1ccccc12
inactive: [6] 119 % of control | [7] 100 % of control | [8] 106 % of control

OC(c1ccccc1)(c1ccccc1)C(F)(Cl)Cl
inactive: [9] 101 % of control | dose: 200.0 mg/kg/injection, schedule: Q04DX003 (ip), vehicle: saline 94 % of control | dose: 400.0 mg/kg/injection, schedule: Q04DX003 (ip), vehicle: saline 90 % of control

O=C1NC(c2ccccc2)C(=O)N1CCN(CCCl)CCCl (stereo not given)
inactive: dose: 3.12 mg/kg/injection, schedule: Q01DX009 (ip), vehicle: saline 102 % of control | dose: 3.12 mg/kg/injection, schedule: Q04DX003 (ip), vehicle: saline 98 % of control | dose: 6.25 mg/kg/injection, schedule: Q01DX009 (ip), vehicle: saline 97 % of control | dose: 6.25 mg/kg/injection, schedule: Q04DX003 (ip), vehicle: saline 106 % of control | dose: 12.5 mg/kg/injection, schedule: Q01DX009 (ip), vehicle: saline 100 % of control | [10] 103 % of control | [11] 115 % of control

O=C(O)Cc1ccc2c3c(ccc([N+](=O)[O-])c13)CC2
inactive: [12] 95 % of control | [13] 93 % of control | [14] 96 % of control | [15] 90 % of control | [16] 96 % of control

O=C(O)C1(O)C(Cl)(Cl)C(Cl)=C(Cl)C1(Cl)Cl
inactive: [1] 103 % of control | dose: 50.0 mg/kg/injection, schedule: Q04DX003 (ip), vehicle: Klucel (hydroxypropylcellulose) (HPC) 92 % of control | [2] 105 % of control | [3] 97 % of control and 100 % of control | [5] 111 % of control

c1ccc2c(c1)ccc1c[n+]3c(ccc4ccccc43)cc12
inactive: dose: 25.0 mg/kg/injection, schedule: Q01DX001 (ip), vehicle: carboxymethylcellulose (CMC) 104 % of control | dose: 50.0 mg/kg/injection, schedule: Q01DX001 (ip), vehicle: carboxymethylcellulose (CMC) 108 % of control

CCN(CC)C(=O)Nc1ccc(C(=O)O)c(O)c1
inactive: [3] 95 % of control | [5] 90 % of control | [17] 90 % of control

C/C(=N\[N+](C)(C)C)c1ccc(Br)cc1
inactive: [10] 109 % of control | [18] 92 % of control | [11] 100 % of control | [19] 91 % of control | dose: 50.0 mg/kg/injection, schedule: Q04DX003 (ip), vehicle: saline 104 % of control | [20] 91 % of control | [9] 102 % of control

CCCCCCCC/C=C\CCCCCCCC(=O)OCCCCC
inactive: dose: 100.0 mg/kg/injection, schedule: Q01DX001 (ip), vehicle: Klucel (hydroxypropylcellulose) (HPC) 93 % of control | [2] 102 % of control | [13] 108 % of control | [14] 93 % of control | dose: 200.0 mg/kg/injection, schedule: Q01DX001 (ip), vehicle: Klucel (hydroxypropylcellulose) (HPC) 92 % of control | [4] 100 % of control | [15] 98 % of control | [16] 91 % of control | dose: 400.0 mg/kg/injection, schedule: Q01DX001 (ip), vehicle: Klucel (hydroxypropylcellulose) (HPC) 103 % of control | dose: 400.0 mg/kg/injection, schedule: Q01DX009 (ip), vehicle: saline sonified 93 % of control | dose: 400.0 mg/kg/injection, schedule: Q01DX009 (ip), vehicle: saline with Tween-80 95 % of control | dose: 400.0 mg/kg/injection, schedule: Q04DX003 (ip), vehicle: saline with Tween-80 95 % of control

COc1ccc(CN(CCOC(=O)c2ccc(OC)cc2)CCN(CCOC(=O)c2ccc(OC)cc2)Cc2ccc(OC)cc2)cc1
inactive: dose: 12.5 mg/kg/injection, schedule: Q01DX009 (ip), vehicle: other 91 % of control | dose: 25.0 mg/kg/injection, schedule: Q01DX009 (ip), vehicle: other 86 % of control | dose: 25.0 mg/kg/injection, schedule: Q01DX009 (ip), vehicle: water 88 % of control | dose: 50.0 mg/kg/injection, schedule: Q01DX009 (ip), vehicle: other 91 % of control | dose: 50.0 mg/kg/injection, schedule: Q01DX009 (ip), vehicle: water 93 % of control | dose: 100.0 mg/kg/injection, schedule: Q01DX009 (ip), vehicle: other 88 % of control | dose: 100.0 mg/kg/injection, schedule: Q01DX009 (ip), vehicle: water 87 % of control | dose: 200.0 mg/kg/injection, schedule: Q01DX009 (ip), vehicle: water 88 % of control | dose: 400.0 mg/kg/injection, schedule: Q01DX009 (ip), vehicle: water 92 % of control

COc1ccc(-c2ccc(C(C)=O)cc2)cc1
inactive: [6] 90 % of control | [7] 100 % of control | [8] 100 % of control

FC1(F)SC2c3ccccc3CCC2C1(F)F (stereo not given)
inactive: [3] 96 % of control | [5] 95 % of control | [17] 102 % of control

N#CSCSC#N
inactive: dose: 3.12 mg/kg/injection, schedule: Q04DX003 (ip), vehicle: saline with Tween-80 98 % of control | dose: 6.25 mg/kg/injection, schedule: Q04DX003 (ip), vehicle: saline with Tween-80 96 % of control | dose: 12.5 mg/kg/injection, schedule: Q04DX003 (ip), vehicle: saline with Tween-80 90 % of control

C#CC[N+](CC#C)(CC#C)CC#C
inactive: [18] 96 % of control | [19] 102 % of control | [20] 104 % of control

CN(CCS)Cc1ccccc1
inactive: dose: 25.0 mg/kg/injection, schedule: Q01DX009 (ip), vehicle: saline with Tween-80 97 % of control | dose: 25.0 mg/kg/injection, schedule: Q04DX003 (ip), vehicle: saline with Tween-80 95 % of control | [12] 99 % of control | dose: 50.0 mg/kg/injection, schedule: Q04DX003 (ip), vehicle: saline with Tween-80 106 % of control | [13] 103 % of control | [14] 97 % of control and 102 % of control

COc1ccc(CCNC(=O)c2ccccc2N=Cc2cc(Cl)cc(Cl)c2O)cc1OC
inactive: dose: 75.0 mg/kg/injection, schedule: Q01DX009 (ip), vehicle: Klucel (hydroxypropylcellulose) (HPC) 94 % of control | dose: 150.0 mg/kg/injection, schedule: Q01DX009 (ip), vehicle: Klucel (hydroxypropylcellulose) (HPC) 96 % of control | dose: 300.0 mg/kg/injection, schedule: Q01DX009 (ip), vehicle: Klucel (hydroxypropylcellulose) (HPC) 96 % of control

Source: PubChem BioAssay AID248 (DTP/NCI, 2004)
